# According to ChEMBL document CHEMBL4256943, “Inhibitors of cyp17a1” (2016):
# Species: Homo sapiens
# Assay: Selectivity factor, ratio of IC50 for human membrane bound C-terminal His4-tagged CYP21A2delta19H mutant to IC50 for human membrane bound C-terminal His4-tagged CYP17A1delta19H mutant
smiles,measurement,value
C[C@]12CC[C@H](O)C[C@@H]1/C(=N/O)C[C@@H]1[C@@H]2CC[C@]2(C)C(c3cccnc3)=CC[C@@H]12,Ratio IC50,68.9
